From paper PMC7071106 (Molecules, 2020)
Read-outs that look alike come from different tables or passages of the source.

Columns and labels:
Giardia duodenalis = test: In vitro giardicidal susceptibility assay (trophozoite growth inhibition); assay type: cell-based, Giardia duodenalis (G. intestinalis strain IMSS:0696:1); details: for SI = CC50/IC50 G. duodenalis: CC50 VERO cells / IC50 G. duodenalis; for IC50: trophozoites, 48 h incubation then 48 h subculture, means of three experiments, read-out: IC50 G. duodenalis
Method: (§1) G. intestinalis strain IMSS:0696:1 and T. vaginalis strain GT3 were cultured in TYI-S-33 medium, complemented with 10% calf serum and bovine bile. […] Subsequently, trophozoites were washed and subcultured for another 48 h in fresh medium without any drugs. Once this time was reached, trophozoites were counted and the median inhibitory concentration (IC50) was calculated. All the experiments were completed in triplicate.

Trichomonas vaginalis = test: In vitro trichomonicidal susceptibility assay (trophozoite growth inhibition); assay type: cell-based, Trichomonas vaginalis strain GT3; details: for SI = CC50/IC50 T. vaginalis: CC50 VERO cells / IC50 T. vaginalis; for IC50: Trichomonas vaginalis, trophozoites, 48 h incubation then 48 h subculture, means of three experiments, read-out: IC50 T. vaginalis
Method: as §1

[1] = Cytotoxicity on VERO cell line (sulforhodamine B method); assay type: cell-based, mammalian; details: African green monkey, 1–100 µM, means of three experiments
Method: We cultivated 1.5 × 10^4 VERO cells in a 96-well plate and incubated in DMEM media complemented with 10% fetal bovine serum, 100 µg/mL streptomycin, and 100 UI/mL penicillin. The culture was incubated at 37 °C in a 5% CO2 atmosphere with 95% humidity for 48 h. […] After 48 h of incubation, viability of the cells was estimated using the sulforhodamine B method. The concentration of the compounds that killed 50% of the cells (CC50) was calculated by nonlinear fit (GraphPad Prism 4 software). All concentrations were evaluated in triplicate.

Cc1ncc([N+](=O)[O-])n1CC(C)OC(=O)NC1CCCCC1 (centres unmarked) [Compound 6, 1-methyl-2-(2-methyl-5-nitro-1H-imidazol-1-yl)ethyl cyclohexylcarbamate]
SI = CC50/IC50 G. duodenalis (Giardia duodenalis): >37
IC50 (Giardia duodenalis; Giardia duodenalis, 48 h): 2.64 ± 0.61 µM
SI = CC50/IC50 T. vaginalis (Trichomonas vaginalis): >11
IC50 (Trichomonas vaginalis): 8.64 ± 0.73 µM
CC50 at 48 h ([1]; VERO cells): > 100 µM
melting point: 219.2 to 222.7 °C

Cc1ncc([N+](=O)[O-])n1CC(C)OC(=O)Nc1ccc(Cl)cc1 (centres unmarked) [Compound 8, 1-methyl-2-(2-methyl-5-nitro-1H-imidazol-1-yl)ethyl (4-chlorophenyl)carbamate]
SI = CC50/IC50 G. duodenalis (Giardia duodenalis): >24
IC50 (Giardia duodenalis; Giardia duodenalis, 48 h): 4.05 ± 0.24 µM
SI = CC50/IC50 T. vaginalis (Trichomonas vaginalis): >16
IC50 (Trichomonas vaginalis): 5.93 ± 0.51 µM
CC50 at 48 h ([1]; VERO cells): > 100 µM
melting point: 268.1 °C (dec.)

Cc1ncc([N+](=O)[O-])n1CCOC(=O)Nc1ccccc1 [Compound 2, 2-(2-methyl-5-nitro-1H-imidazol-1-yl)ethyl phenylcarbamate]
SI = CC50/IC50 G. duodenalis (Giardia duodenalis): >102
IC50 (Giardia duodenalis): 0.98 ± 0.01 µM
SI = CC50/IC50 T. vaginalis (Trichomonas vaginalis): >1111
IC50 (Trichomonas vaginalis): 0.09 ± 0.01 µM
CC50 at 48 h ([1]; VERO cells): > 100 µM

Cc1ncc([N+](=O)[O-])n1CCOC(=O)Nc1ccc([N+](=O)[O-])cc1 [Compound 5, 2-(2-methyl-5-nitro-1H-imidazol-1-yl)ethyl (4-nitrophenyl)carbamate]
SI = CC50/IC50 G. duodenalis (Giardia duodenalis): >41
IC50 (Giardia duodenalis; Giardia duodenalis, 48 h): 2.43 ± 0.02 µM
SI = CC50/IC50 T. vaginalis (Trichomonas vaginalis): >16
IC50 (Trichomonas vaginalis): 6.25 ± 0.12 µM
CC50 at 48 h ([1]; read-out: CC50 VERO Cells): > 100 µM

Cc1ncc([N+](=O)[O-])n1CC(C)O (centres unmarked) [Secnidazole, secnidazole, reference compound]
SI = CC50/IC50 G. duodenalis (Giardia duodenalis): >24
IC50 (Giardia duodenalis; Giardia duodenalis, 48 h): 4.11 ± 0.12 µM
SI = CC50/IC50 T. vaginalis (Trichomonas vaginalis): >7
IC50 (Trichomonas vaginalis): 13.5 ± 1.23 µM
CC50 at 48 h ([1]; VERO cells): > 100 µM

Cc1ncc([N+](=O)[O-])n1CCO [Metronidazole, metronidazole, reference compound]
IC50 (Trichomonas vaginalis): 0.93 ± 0.12 µM
CC50 at 48 h ([1]; VERO cells): > 100 µM

Cc1ncc([N+](=O)[O-])n1CCOC(=O)NC1CCCCC1 [Compound 1, 2-(2-methyl-5-nitro-1H-imidazol-1-yl)ethyl cyclohexylcarbamate]
SI = CC50/IC50 G. duodenalis (Giardia duodenalis): >217
IC50 (Giardia duodenalis; Giardia duodenalis, 48 h): 0.46 ± 0.01 µM
SI = CC50/IC50 T. vaginalis (Trichomonas vaginalis): >1666
IC50 (Trichomonas vaginalis): 0.06 ± 0.01 µM
CC50 at 48 h ([1]; VERO cells): > 100 µM

Cc1ncc([N+](=O)[O-])n1CCOC(=O)Nc1ccc(F)cc1 [Compound 4, 2-(2-methyl-5-nitro-1H-imidazol-1-yl)ethyl (4-fluorophenyl)carbamate]
SI = CC50/IC50 G. duodenalis (Giardia duodenalis): >49
IC50 (Giardia duodenalis; Giardia duodenalis, 48 h): 2.03 ± 0.01 µM
SI = CC50/IC50 T. vaginalis (Trichomonas vaginalis): >31
IC50 (Trichomonas vaginalis): 3.22 ± 0.21 µM
CC50 at 48 h ([1]; VERO cells): > 100 µM

Cc1ncc([N+](=O)[O-])n1CC(C)OC(=O)Nc1ccccc1 (centres unmarked) [Compound 7, 1-methyl-2-(2-methyl-5-nitro-1H-imidazol-1-yl)ethyl phenylcarbamate]
SI = CC50/IC50 G. duodenalis (Giardia duodenalis): >59
IC50 (Giardia duodenalis; Giardia duodenalis, 48 h): 1.67 ± 0.21 µM
SI = CC50/IC50 T. vaginalis (Trichomonas vaginalis): >15
IC50 (Trichomonas vaginalis): 6.52 ± 0.71 µM
CC50 at 48 h ([1]; VERO cells): > 100 µM
melting point: 238.9 to 240.5 °C

Cc1ncc([N+](=O)[O-])n1CC(C)OC(=O)Nc1ccc([N+](=O)[O-])cc1 (centres unmarked) [Compound 10, 1-methyl-2-(2-methyl-5-nitro-1H-imidazol-1-yl)ethyl (4-nitrophenyl)carbamate]
SI = CC50/IC50 G. duodenalis (Giardia duodenalis): >116
IC50 (Giardia duodenalis; Giardia duodenalis, 48 h): 0.86 ± 0.09 µM
SI = CC50/IC50 T. vaginalis (Trichomonas vaginalis): >10
IC50 (Trichomonas vaginalis): 9.99 ± 0.56 µM
CC50 at 48 h ([1]; read-out: CC50 VERO Cells): > 100 µM
melting point: 235.4 °C (dec.)

Cc1ncc([N+](=O)[O-])n1CCOC(=O)Nc1ccc(Cl)cc1 [Compound 3, 2-(2-methyl-5-nitro-1H-imidazol-1-yl)ethyl (4-chlorophenyl)carbamate]
SI = CC50/IC50 G. duodenalis (Giardia duodenalis): >87
IC50 (Giardia duodenalis; Giardia duodenalis, 48 h): 1.14 ± 0.12 µM
SI = CC50/IC50 T. vaginalis (Trichomonas vaginalis): >55
IC50 (Trichomonas vaginalis): 1.79 ± 0.12 µM
CC50 at 48 h ([1]; VERO cells): > 100 µM

Cc1ncc([N+](=O)[O-])n1CC(C)OC(=O)Nc1ccc(F)cc1 (centres unmarked) [Compound 9, 1-methyl-2-(2-methyl-5-nitro-1H-imidazol-1-yl)ethyl (4-fluorophenyl)carbamate]
SI = CC50/IC50 G. duodenalis (Giardia duodenalis): >30
IC50 (Giardia duodenalis; Giardia duodenalis, 48 h): 3.23 ± 0.11 µM
SI = CC50/IC50 T. vaginalis (Trichomonas vaginalis): >20
IC50 (Trichomonas vaginalis): 4.82 ± 1.08 µM
CC50 at 48 h ([1]; VERO cells): > 100 µM
melting point: 162.3 to 163.5 °C
